Test results taken from patent US12616203B2, “Use of 3-isoxazolidinones compounds as selective herbicides” (FMC Corporation, priority 2014, dated 2026).

Columns and labels:
common chickweed (CC) = assay: Ex2 PRE greenhouse, % control; type: in vivo, Stellaria media; details: 28 DAT, g ai/ha by row: r12-40 2,4-DC 31.25/62.5/125/250/375 (3 rows each) + metazachlor 250/500/750 (cycling), r42-46 2,4-DC 31.25/62.5/125/250/375, r47-49 metazachlor 250/500/750
Experimental: (§1) Test compositions containing 2,4 DC Example 1B and metazachlor (Butisan® S, 43.1% active ingredient, BASF) and mixtures of 2-(2,4-dichlorophenyl)methyl-4,4-dimethyl-3-isoxazolidinone and metazachlor, were diluted with water to provide the appropriate test rate concentrations.
(§2) The test crops were wheat and canola (Brassica napus), the test weeds were Italian ryegrass (IR) (Lolium perenne. multiflorum), annual bluegrass (AB) (Poa annua), common lambsquarters (CL) (Chenopodium album), littleseed canarygrass (LC) (Phalaris minor), common chickweed (CC) (Stellaria media), and corn poppy (CP) (Papaver rhoeas).
(§3) For pre-emergence testing, four disposable fiber flats (6″ by 10″) for each rate of application of each herbicide solution were filled with top soil, to which seeds of each species were planted in furrows made by a template pressed on the top of the soil. The furrows were covered with soil after planting the seed and were watered well before application of the test compounds. […]
(§4) The control of weeds was evaluated in each experimental test at 21 days after treatment (DAT) for corn poppy and wheat and 28 DAT for all other species. […]
(§5) Percent control was determined by a method similar to the 0 to 100 rating system disclosed in “Research Methods in Weed Science,” 2nd ed., B. Truelove, Ed.; Southern Weed Science Society; Auburn University, Auburn, Ala., 1977.

Italian ryegrass (IR) = assay: Ex2 PRE greenhouse, % control; type: in vivo, Lolium perenne. multiflorum; details: 28 DAT, g ai/ha by row: r12-40 2,4-DC 31.25/62.5/125/250/375 (3 rows each) + metazachlor 250/500/750 (cycling)
Experimental: as §1, §2
For pre-emergence testing, four disposable fiber flats (6″ by 10″) for each rate of application of each herbicide solution were filled with top soil, to which seeds of each species were planted in furrows made by a template pressed on the top of the soil. The furrows were covered with soil after planting the seed and were watered well before application of the test compounds.
Fiber flats designated for treatment were placed in a spray chamber having a static platform and a movable sprayer and height of the spray nozzle was 10.5 inches above the soil level. Once the sprayer was calibrated using water for spray volume of 30 gallons per acre, flats were sprayed with sprayer at a speed to receive a coverage equivalent of 30 gallons per acre. The application rates are those shown in Table 1 below for the individual herbicidal solutions and the herbicide compositions of the present invention. The pre-emergence flats were immediately placed in the greenhouse and watered lightly after treatment. Thereafter they were regularly watered and fertilized for the duration of the test.
The control of weeds was evaluated in each experimental test at 21 days after treatment (DAT) for corn poppy and wheat and 28 DAT for all other species. The results, shown as an average of the replications were compared with results observed in untreated control flats in the same tests.
as §5

[1] = system: common lambsquarters (CL); assay: Ex2 PRE greenhouse, % control; type: in vivo, Chenopodium album; details: 28 DAT, g ai/ha by row: r12-40 2,4-DC 31.25/62.5/125/250/375 (3 rows each) + metazachlor 250/500/750 (cycling), r42-46 2,4-DC 31.25/62.5/125/250/375, r47-49 metazachlor 250/500/750
Experimental: as §1, §2, §3, §4, §5

weeds; Wheat and canola = assay: Ex27 PRE greenhouse; type: in vivo; details: weed and rate in the words
Description: The weeds tested in this study were Italian ryegrass (Lolium perenne. multiflorum, LOLMU), wild mustard (Sinapis arvensis, SINAR), annual bluegrass (Poa annua POAAN), wild oat (Avena fatua, AVEFA), blackgrass (Alopecurus myosuroides, ALOMY), common lambsquarters (Chenopodium album […] (Phalaris minor, PHAMI), common chickweed (Stellaria media, STEME), corn poppy (Papaver rhoeas PAPRH). The crops tested were Wheat and canola. […] Treatments were applied before the emergence of Italian ryegrass, wild oat, blackgrass, littleseed canarygrass, common chickweed, common lambsquarters, corn poppy, wild mustard, annual bluegrass, canola, and wheat. […] Flats were watered and fertilized routinely after treatment application. […] Wheat and corn poppy were rated at 14 and 21 DAT only.

[2] = system: littleseed canarygrass (LC); assay: Ex2 PRE greenhouse, % control; type: in vivo, Phalaris minor; details: 28 DAT, g ai/ha by row: r12-40 2,4-DC 31.25/62.5/125/250/375 (3 rows each) + metazachlor 250/500/750 (cycling)
Description: Fiber flats designated for treatment were placed in a spray chamber having a static platform and a movable sprayer and height of the spray nozzle was 10.5 inches above the soil level. Once the sprayer was calibrated using water for spray volume of 30 gallons per acre, flats were sprayed with sprayer at a speed to receive a coverage equivalent of 30 gallons per acre. […] The pre-emergence flats were immediately placed in the greenhouse and watered lightly after treatment. Thereafter they were regularly watered and fertilized for the duration of the test.

annual bluegrass (AB) = assay: Ex2 PRE greenhouse, % control; type: in vivo, Poa annua; details: 28 DAT, g ai/ha by row: r12-40 2,4-DC 31.25/62.5/125/250/375 (3 rows each) + metazachlor 250/500/750 (cycling), r42-46 2,4-DC 31.25/62.5/125/250/375, r47-49 metazachlor 250/500/750
Experimental: as §1, §2, §3, §4, §5

corn poppy (CP) = assay: Ex2 PRE greenhouse, % control; type: in vivo, Papaver rhoeas; details: 21 DAT, g ai/ha by row: r12-40 2,4-DC 31.25/62.5/125/250/375 (3 rows each) + metazachlor 250/500/750 (cycling), r42-46 2,4-DC 31.25/62.5/125/250/375, r47-49 metazachlor 250/500/750
Experimental: as §1, §2, §3, §4, §5

weeds = assay: Ex18 PRE greenhouse; type: in vivo; details: weed and rate in the words
Description: Additional treatments included application of metazachlor (Butisan®, 43.1%) at 750 g ai/ha, napropamide (Devrinol DF®, 50%) at 1260 g ai/ha, and dimethachlor (Teridox®, 48%) at 1000 g ai/ha. […] Treatments were applied just after the seeding of annual bluegrass, cheat, wild oat, quackgrass, field violet, blackgrass, littleseed canarygrass, silky windgrass, yellow foxtail, and goosegrass. […] Flats were watered and fertilized routinely after treatment application. Each treatment was replicated three times.

[3] = r42-46 2,4-DC 31.25/62.5/125/250/375, r47-49 metazachlor 250/500/750, 250 g ai/ha
[4] = r42-46 2,4-DC 31.25/62.5/125/250/375, r47-49 metazachlor 250/500/750, 500 g ai/ha

SMILES: Cc1cccc(C)c1N(Cn1cccn1)C(=O)CCl [Metazachlor, metazachlor]
- % Control CC (common chickweed (CC)): 100%
- % Control IR (Italian ryegrass (IR); [3]): 96%
- % Control IR (Italian ryegrass (IR); [4]): 98%
- % Control IR (Italian ryegrass (IR); r42-46 2,4-DC 31.25/62.5/125/250/375, r47-49 metazachlor 250/500/750, 750 g ai/ha): 99%
- % Control CL [1]: 100%
- weed control in words (weeds; Wheat and canola): alone controlled blackgrass at 750 g
- % Control LC [2, 3]: 99%
- % Control LC [2, 4]: 100%
- % Control AB (annual bluegrass (AB)): 100%
- % Control CP (corn poppy (CP)): 100%
- weed control in words (weeds): controlled all weeds
